Results taken from US6780978B2, “Fluorescence-activating antisera and IgG fraction therefrom” (Hamamatsu Photonics, K.K., priority 1998, dated 2004).

Tests used:
anti-MG-KLH IgG [1] = experiment: Absorption spectra of dye mixed with IgG fraction; format: binding, guinea-pig
Experimental: Concentrations of the aforementioned IgG fraction and MG solution were adjusted by dilution such that the protein concentration as described above and MG concentration would finally be 2 μM and 4 μM, respectively. Further, employing γ globulin of a guinea-pig as the control against anti-MG-KLH IgG (i.e., blank IgG), the absorption spectrum of a mixture of the IgG fraction and the MG solution was measured (See FIG. 3).

anti-MG-KLH IgG [2] = experiment: Differential fluorescence spectra of dye mixed with IgG fraction; format: binding, guinea-pig; conditions: for fluorescent ability upon mixing with anti-MG-KLH IgG: differential spectrum versus blank IgG
Excerpt: Since the differential spectra can remove problematic noises in the fluorescence analysis such as the fluorescence of a cell itself and Raman scattering of a solvent, it becomes possible to obtain the fluorescence spectrum purely pertaining to a sample.

[3] = Absorbance of Malachite Green dilutions in PBS at 617 nm; format: physicochemical; conditions: 1 cm path
Experimental: Malachite Green is dissolved in a phosphate-buffered saline (hereinafter referred to as “PBS”) to prepare a series of dilutions in the concentration range of 4-4,000 nM.
Absorbance at a wavelength of 617 nm in these dilutions is measured with a Hitachi Model 557 two wavelength spectrophotometer using a quartz cell with a 1 cm optical path length and PBS as the reference (See Table 1), and a concentration—absorbance curve is prepared (See FIG. 6).

[4] = tested on: IgG fraction derived from Guinea-pig 1; experiment: Fluorescence of Malachite Green dilutions mixed with the IgG fraction; format: binding; conditions: IgG fraction 0.2 μM, excitation 617 nm
Experimental: A series of dilutions of Malachite Green in PBS solutions are prepared by adding to the solutions, the IgG fraction according to the invention which has been derived from Guinea-pig 1 in certain amounts (with the final concentration being 0.2 μM), and by adjusting concentrations of the dye within the range of 0-12 nM.
Fluorescence of these dilutions is measured with a Hitachi Model 850 fluorescence spectrophotometer under the following conditions: in a quartz cell of optical path length of 1.0 cm at the excitation side; an excitation wavelength of 617 nm; an emission wavelength of 650 nm; a band-pass width of 5 nm at both excitation and emission sides; High gain of a photomultiplier; a time constant of 1.5 sec; and a fluorescence integration time of 30 sec. Thus, a concentration-fluorescence intensity curve is prepared (See FIG. 5).
The fluorescence intensity is expressed as output values (i.e., arbitrary, relative units) of the fluorescence spectrophotometer.

SMILES	change of absorption intensity in anti-MG-KLH IgG mixed solution (anti-MG-KLH IgG [1])	shift of absorption spectrum in anti-MG-KLH IgG mixed solution (anti-MG-KLH IgG [1])	fluorescent ability upon mixing with anti-MG-KLH IgG (anti-MG-KLH IgG [2])	Absorbance (617 nm) ([3]; 4 nM in PBS)	Absorbance (617 nm) ([3]; 12 nM in PBS)	Absorbance (617 nm) ([3]; 40 nM in PBS)	Absorbance (617 nm) ([3]; 120 nM in PBS)	Absorbance (617 nm) ([3]; 400 nM in PBS)	Absorbance (617 nm) ([3]; 1200 nM in PBS)	Absorbance (617 nm) ([3]; 4000 nM in PBS)	Fluorescence intensity (650 nm) ([4]; 0.04 nM dye)	Fluorescence intensity (650 nm) ([4]; 0.12 nM dye)	Fluorescence intensity (650 nm) ([4]; 0.4 nM dye)	Fluorescence intensity (650 nm) ([4]; 1.2 nM dye)	Fluorescence intensity (650 nm) ([4]; 4 nM dye)	Fluorescence intensity (650 nm) ([4]; 12 nM dye)	shift of wavelength of absorption maximum to longer wavelength relative to dye alone (anti-MG-KLH IgG [1]; IgG 2 μM, MG 4 μM)	increase of fluorescence quantum yield (anti-MG-KLH IgG [2]; by the treatment according to the invention)
CN(C)c1ccc(C(=N)c2ccc(N(C)C)cc2)cc1.Cl [Auramine O]	decline in the absorption intensity	shift toward longer wavelengths	manifests its fluorescent ability	–	–	–	–	–	–	–	–	–	–	–	–	–	–	–
CN(C)c1ccc(C(=C2C=CC(=[N+](C)C)C=C2)c2ccccc2)cc1 [Malachite Green]	–	–	fluorescent	0	0	0.002	0.009	0.036	0.132	0.464	0.026 arbitrary, relative units	0.034 arbitrary, relative units	0.066 arbitrary, relative units	0.18 arbitrary, relative units	0.487 arbitrary, relative units	1.22 arbitrary, relative units	6-7 nm	over 1,000 times
